Key:
Assay type in all cases: cell-based
[1] = target: T1, NLRP3 (Homo sapiens, UniProt Q96P20); assay: Measurement of IL-1β production (NLRP3 hIL1β EC50), PMA-differentiated THP-1 cells; settings: human IL-1β production; assayed using one or more of the described procedures
T1 construct: host or cells: PMA-differentiated THP-1 cells
Experimental: THP-1 cells were purchased from the American Type Culture Collection and sub-cultured according to instructions from the supplier. Prior to experiments, cells were cultured in RPMI 1640 containing 10% heat inactivated FBS, penicillin (100 units/ml) and streptomycin (100 μg/ml), and maintained in log phase prior to experimental setup. Prior to the experiment THIP-1 were treated with PMA (Phorbol 12-myristate 13-acetate) (10 μg/ml) for 24 hours. The day of the experiment the media was removed and attaching cells were treated with trypsin for 2 minutes, cells were then collected, washed with PBS (phosphate buffer saline), spin down, resuspended in 2% heat inactivated FBS with RPMI at a concentration of 1×10^6 cells/ml, and 100 μl was plated in a 96 well plate. Compounds were dissolved in dimethyl sulfoxide (DMSO) and added to the culture medium to achieve desired concentration (e.g. 100, 30, 10, 3, 1, 0.3 or 0.1 μM). Cells were incubated with compounds for 4 hours. Cell free supernatant was collected and the production of IL-1β was evaluated by ELISA. A vehicle only control was run concurrently with each experiment. Final DMSO concentration was 1%.
THP-1 cells were purchased from the American Type Culture Collection and sub-cultured according to instructions from the supplier. Prior to experiments, cells were cultured in RPMI 1640 containing 10% heat inactivated FBS, penicillin (100 units/ml), streptomycin (100 μg/ml), HEPES (10 mM) and sodium pyruvate (1 mM) and maintained in log phase prior to experimental setup. Prior to the experiment, THP-1 cells were treated with PMA (Phorbol 12-myristate 13-acetate) (20 μg/ml) overnight. The day of the experiment, the media was removed and attached cells were treated with trypsin for 2 minutes, cells were then collected, washed with PBS (phosphate buffer saline), pelleted by centrifugation and resuspended in 2% heat inactivated FBS with RPMI at a concentration of 50,000 cells/well in a 384 well plate. Cell free supernatant was collected and the production of IL-1β was evaluated by ELISA. Compounds were dissolved in dimethyl sulfoxide (DMSO) and added to the culture medium to achieve desired concentration (e.g. 100, 30, 10, 3, 1, 0.3 or 0.1 μM). Cells were incubated with compounds for 2 hours. A vehicle only control was run concurrently with each experiment. Final DMSO concentration was 1%.
Serial dilutions of compounds in DMSO were added to low volume 384 well plates at 100 nl/well using an ECHO 550 acoustic dispenser (Labcyte) to achieve final starting concentration of 10 μM in assay.
THP-1 cells in RPMI (Gibco, 11875) media with 10% FBS at a density of 1×10^6 cell/ml in a T175 flask were treated with a final concentration of phorbol 12-myristate 13-acetate (PMA) (Sigma,P1585) of 50 ng/ml overnight at 37° C. at 5% CO2 for differentiation. Cells were harvested the next day after rinsing well with dPBS using 0.5% trypsin. A cell solution was prepared of 1×10^6 cells/ml for 50,000 cells in 50 μl/well in RPMI media with 2% FBS. Cells were plated using a multichannel pipette onto the compound dilutions in Greiner, 384 well, black clear bottom tissue culture treated plates (781090). The plates were incubated in 37° C. incubator at 5% CO2 for 2 hours.
After the 2 hour incubation, the cell plates were spun in the centrifuge for 5 minutes at 1200 rpm. Using the Felix (CyBio), 8 μl of the supernatant was transferred to 384 well, low volume, white proxy plates. (Perkin Elmer, 6008230). A human IL1beta hTRF kit was used to analyze the supernatant (CISBIO, 62HIL1BPEG). The kit instructions were followed for preparing the IL1Beta standard curve and then the antibodies from the kit were diluted 1:40 rather than 1:20 as kit instructed. Once combined, the antibodies were added across the plates, 5 μl/well. The plates were sealed and incubated at 4° C. overnight. The plates were then read on the Perkin Elmer EnVision at 665/615 nm using the hTRF laser.

[2] = target: T2, human TLR7 (Homo sapiens, UniProt Q9NYK1); assay: In vitro human TLR7 reporter assay (HEK-Blue cells, NF-kB/AP1-inducible SEAP); settings: TLR7 agonist EC50, HEK-Blue TLR7 NF-kB-SEAP reporter cells
T2 construct: host or cells: HEK-Blue cells (human HEK) co-expressing TLR7 and an NF-kB/AP1-inducible SEAP reporter
T2 sequence (Q9NYK1 27-1049): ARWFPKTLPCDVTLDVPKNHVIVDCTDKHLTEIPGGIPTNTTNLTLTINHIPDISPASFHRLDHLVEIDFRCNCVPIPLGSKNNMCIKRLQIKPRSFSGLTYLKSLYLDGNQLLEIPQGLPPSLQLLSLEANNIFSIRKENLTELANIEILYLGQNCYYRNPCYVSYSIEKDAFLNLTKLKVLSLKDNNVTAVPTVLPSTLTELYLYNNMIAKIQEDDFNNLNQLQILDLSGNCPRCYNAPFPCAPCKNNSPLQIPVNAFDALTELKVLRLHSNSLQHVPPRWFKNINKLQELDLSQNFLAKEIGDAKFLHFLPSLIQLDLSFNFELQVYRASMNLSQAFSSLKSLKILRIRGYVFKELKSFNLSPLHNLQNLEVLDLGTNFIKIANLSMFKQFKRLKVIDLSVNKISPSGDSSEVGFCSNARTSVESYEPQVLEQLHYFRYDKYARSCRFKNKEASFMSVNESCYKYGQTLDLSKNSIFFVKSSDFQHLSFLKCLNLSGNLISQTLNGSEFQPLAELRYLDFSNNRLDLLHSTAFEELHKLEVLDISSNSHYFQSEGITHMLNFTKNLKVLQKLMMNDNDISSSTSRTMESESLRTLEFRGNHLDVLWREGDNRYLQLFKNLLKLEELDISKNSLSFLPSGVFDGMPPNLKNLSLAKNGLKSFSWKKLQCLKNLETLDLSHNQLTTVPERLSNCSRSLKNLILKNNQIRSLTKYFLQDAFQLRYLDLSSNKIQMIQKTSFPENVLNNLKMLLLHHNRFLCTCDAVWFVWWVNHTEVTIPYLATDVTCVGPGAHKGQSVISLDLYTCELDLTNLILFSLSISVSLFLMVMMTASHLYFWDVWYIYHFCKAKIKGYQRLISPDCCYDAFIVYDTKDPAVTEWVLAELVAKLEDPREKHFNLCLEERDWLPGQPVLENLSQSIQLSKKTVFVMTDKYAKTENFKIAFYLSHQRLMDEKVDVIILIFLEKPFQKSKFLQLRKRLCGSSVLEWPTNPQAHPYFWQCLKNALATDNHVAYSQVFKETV
Experimental: (§1) Logarithmically-growing human HEK-Blue cells co-expressing a TLR7 or TLR8 gene and a NF-kB/AP1-inducible SEAP (secreted embryonic alkaline phosphatase; Invivogen, San Diego, CA) reporter gene are added to individual wells of a 384-well plate (15,000 cells per 20 μL per well) and maintained for 24 h at 37° C., 5% CO2. Test compounds or DMSO are distributed to separate wells the next day using acoustic liquid handling technology (100 nL per well) and cells are subsequently incubated for 18 h at 37° C., 5% CO2. Cellular SEAP production is measured using an Envision plate reader instrument thirty minutes after adding freshly-made Quanti-Blue reagent (prepared by following manufacturer instructions; Invivogen, San Diego, CA) to the HEK-Blue TLR Nf-kB-SEAP cell reactions. All EC50 values (half-maximal effective concentration) are determined using proprietary data analysis software. Normalized EC50 value=absolute value determined by setting 100% Ymax using a reference standard RLU (relative light unit) values from cells treated with 50 μM of the reference standard.

[3] = target: T3, human TLR8 (Homo sapiens, UniProt Q9NR97); assay: In vitro human TLR8 reporter assay (HEK-Blue cells, NF-kB/AP1-inducible SEAP); settings: TLR8 agonist EC50, HEK-Blue TLR8 NF-kB-SEAP reporter cells
T3 construct: host or cells: HEK-Blue cells (human HEK) co-expressing TLR8 and an NF-kB/AP1-inducible SEAP reporter
T3 sequence (Q9NR97 27-1041): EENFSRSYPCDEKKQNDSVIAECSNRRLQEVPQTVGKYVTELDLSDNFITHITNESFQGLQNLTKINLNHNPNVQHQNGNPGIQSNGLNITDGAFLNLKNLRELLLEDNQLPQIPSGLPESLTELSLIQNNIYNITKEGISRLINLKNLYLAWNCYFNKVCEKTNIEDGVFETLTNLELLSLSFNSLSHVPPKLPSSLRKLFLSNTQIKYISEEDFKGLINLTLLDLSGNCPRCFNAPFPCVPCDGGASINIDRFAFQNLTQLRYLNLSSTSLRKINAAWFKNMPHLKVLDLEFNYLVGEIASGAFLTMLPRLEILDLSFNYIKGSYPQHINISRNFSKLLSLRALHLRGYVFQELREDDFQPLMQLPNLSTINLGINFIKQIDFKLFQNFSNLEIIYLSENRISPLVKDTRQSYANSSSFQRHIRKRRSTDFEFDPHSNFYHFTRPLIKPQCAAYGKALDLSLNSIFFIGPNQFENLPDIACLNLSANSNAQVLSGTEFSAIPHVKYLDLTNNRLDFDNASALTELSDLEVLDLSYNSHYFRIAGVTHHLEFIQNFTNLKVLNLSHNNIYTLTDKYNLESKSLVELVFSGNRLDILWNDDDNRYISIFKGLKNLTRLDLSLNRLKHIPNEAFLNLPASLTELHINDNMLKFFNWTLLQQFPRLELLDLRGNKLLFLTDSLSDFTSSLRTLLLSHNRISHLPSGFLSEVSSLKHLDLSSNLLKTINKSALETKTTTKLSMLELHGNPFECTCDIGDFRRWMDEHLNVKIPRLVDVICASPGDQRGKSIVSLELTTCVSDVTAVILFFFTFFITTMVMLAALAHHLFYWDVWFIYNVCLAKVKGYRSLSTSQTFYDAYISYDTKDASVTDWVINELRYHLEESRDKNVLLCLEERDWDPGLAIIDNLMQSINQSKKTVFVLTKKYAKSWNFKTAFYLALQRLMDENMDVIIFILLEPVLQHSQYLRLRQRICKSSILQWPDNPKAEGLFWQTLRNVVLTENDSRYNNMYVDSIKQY
Experimental: as §1

T1 sequence (Q96P20 whole entry): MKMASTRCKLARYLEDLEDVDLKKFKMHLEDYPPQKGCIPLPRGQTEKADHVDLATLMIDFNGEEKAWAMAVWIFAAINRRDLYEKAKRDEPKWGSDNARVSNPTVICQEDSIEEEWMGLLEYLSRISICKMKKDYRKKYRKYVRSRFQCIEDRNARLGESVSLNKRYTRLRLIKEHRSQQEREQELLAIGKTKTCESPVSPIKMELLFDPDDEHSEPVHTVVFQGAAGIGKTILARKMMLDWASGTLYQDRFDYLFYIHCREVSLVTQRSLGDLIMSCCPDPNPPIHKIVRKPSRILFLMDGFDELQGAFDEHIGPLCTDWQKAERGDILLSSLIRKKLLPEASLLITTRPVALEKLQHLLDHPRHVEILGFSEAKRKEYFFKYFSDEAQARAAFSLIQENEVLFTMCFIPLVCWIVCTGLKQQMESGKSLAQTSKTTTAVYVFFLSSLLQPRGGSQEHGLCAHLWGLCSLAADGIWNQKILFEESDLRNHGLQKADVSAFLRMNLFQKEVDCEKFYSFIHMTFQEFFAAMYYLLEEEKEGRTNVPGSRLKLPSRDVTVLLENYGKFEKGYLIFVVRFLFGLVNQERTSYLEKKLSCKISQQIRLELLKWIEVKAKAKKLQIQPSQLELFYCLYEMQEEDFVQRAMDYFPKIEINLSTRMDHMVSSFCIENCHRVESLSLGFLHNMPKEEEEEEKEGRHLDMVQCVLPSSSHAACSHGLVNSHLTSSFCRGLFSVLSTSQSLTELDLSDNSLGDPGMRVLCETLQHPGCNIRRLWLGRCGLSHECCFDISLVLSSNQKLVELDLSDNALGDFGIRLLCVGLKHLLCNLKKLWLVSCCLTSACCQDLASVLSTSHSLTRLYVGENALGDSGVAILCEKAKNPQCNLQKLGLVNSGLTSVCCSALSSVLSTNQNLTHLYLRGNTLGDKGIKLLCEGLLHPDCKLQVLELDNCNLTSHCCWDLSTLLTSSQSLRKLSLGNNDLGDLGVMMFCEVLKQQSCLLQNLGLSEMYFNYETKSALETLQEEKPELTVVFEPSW

Structure (SMILES)	EC50 [1] [µM]	EC50 [2] [µM]	EC50 [3] [µM]
N#CC1(C(=O)N2CCC[C@H](c3nc4c(N)nc5cc(-c6cc[nH]n6)ccc5c4[nH]3)C2)CCCC1 [Example 39]	2.5	35	–
CC(C)(C)C(=O)N1CCC[C@H](c2nc3c(N)nc4cc(-c5cc[nH]n5)ccc4c3[nH]2)C1 [Example 28]	1.2	–	47
CC(C)CC(=O)N1CCC[C@H]1Cc1nc2c(N)nc3cc(-c4cc[nH]n4)ccc3c2[nH]1 [Example 87]	4.3	–	77
CC(C)(C)OC(=O)N1CCC[C@@H](c2nc3c(N)nc4cc(-c5cc[nH]n5)ccc4c3[nH]2)C1 [Example 6, tert-Butyl (R)-3-(4-amino-7-(1H-pyrazol-3-yl)-1H-imidazo[4,5-c]quinolin-2-yl)piperidine-1-carboxylate]	0.36	–	10
N#CC1(C(=O)N2CCC[C@H](c3nc4c(N)nc5cc(-c6cc[nH]n6)ccc5c4[nH]3)C2)CCCCC1 [Example 38]	2	–	17
N#CC1(C(=O)N2CCC[C@H](c3nc4c(N)nc5cc(-c6cc[nH]n6)ccc5c4[nH]3)C2)CC1 [Example 3, (S)-1-(3-(4-Amino-7-(1H-pyrazol-3-yl)-1H-imidazo[4,5-c]quinolin-2-yl)piperidine-1-carbonyl)cyclopropane-1-carbonitrile]	0.98	0.62	–
N#CC1(C(=O)N2CCC[C@@H](c3nc4c(N)nc5cc(-c6cc[nH]n6)ccc5c4[nH]3)C2)CCCC1 [Example 70]	3.9	57	–
CC(C)(C)OC(=O)N1CCC[C@H](c2nc3c(N)nc4cc(-c5cc[nH]n5)ccc4c3[nH]2)C1 [Example 1, tert-Butyl (S)-3-(4-amino-7-(1H-pyrazol-3-yl)-1H-imidazo[4,5-c]quinolin-2-yl)piperidine-1-carboxylate]	0.33	–	10
Nc1nc2cc(-c3cc[nH]n3)ccc2c2[nH]c([C@H]3CCCN(C(=O)Cc4ccccc4)C3)nc12 [Example 40]	3.8	58	–

— patent publication US12492200B2, “NLRP3 modulators” (INNATE TUMOR IMMUNITY, INC., priority 2020, dated 2025)
